{"source": "patent US8518459B2", "about": "“Composition for regulating lipid metabolism” (Actigenomics S.A., priority 2009, dated 2013)", "key": {"[1]": {"system": "C57B16J mice submitted to diet rich in cholesterol", "experiment": "Distribution of cholesterol in lipoproteins by FPLC", "type": "in vivo, C57bl6J male mice", "settings": "VLDL fraction", "method": "(§1) […] C57bl6J male mice (8 weeks of age) from breeding company Janvier (Le Genest Saint Isle, France) are distributed in cages and housed in a room with controlled humidity and temperature (23±0.5° C.). They are subject to a 12/12-hr light cycle (light at 7 am). During one week of adaptation, the animals have free access to drinking water and food, and are then randomized into 5 groups of 12 animals using as selection criteria weight, triglyceridemia and cholesterolemia.\n(§2) • a control group receiving a diet enriched in cholesterol (see composition in Table 1) • a group treated with the reference, atorvastatin, 10 mg/kg/day, • a group receiving a 125 ng/kg/day concentration of Lipistase, • a group receiving PS (a mixture of phytosterols and stanols) to the total dose of 1.2 g/kg/day, • a group receiving a combination of Lipistase and phytosterols.\nAll products (reference, study products and combination of products) are administered in the diet enriched in cholesterol, and administration to animals lasts three months. […]\nThe determination of lipoprotein profiles is carried out by FPLC (Synelvia, France) after two and three months of treatment and the amounts of cholesterol and triglycerides are measured in the different fractions (HDL, LDL and VLDL)."}, "[2]": {"system": "C57B16J mice submitted to diet rich in cholesterol", "experiment": "Non-fasting glycemia after 12 weeks", "type": "in vivo, C57bl6J male mice", "settings": "after 12 weeks of treatment", "method": "as §1\nas §2, with “phytosterols. […]” for “phytosterols.”\nEuthanasia is performed after 3 months of treatment (12 weeks). A blood test is performed, and the following parameters are measured on an automated Konelab (Thermo Fisher, France): total cholesterol (Thermo Fisher, 981,813), triglycerides (Thermo Fisher, 981,786), glucose (Thermo Fisher, 981,780), ALAT (Thermo Fisher, 981,769), ALP (Thermo Fisher, 981,771), ASAT (Thermo Fisher, 981,771)."}, "[3]": {"system": "C57B16J mice submitted to diet rich in cholesterol", "experiment": "Adiposity index and distribution of white adipose tissue after 12 weeks", "type": "in vivo, C57bl6J male mice", "settings": "after 12 weeks of treatment", "method": "as §1, §2\n(§3) All products (reference, study products and combination of products) are administered in the diet enriched in cholesterol, and administration to animals lasts three months. Lipistase, being in the form of a soybean oil suspension, all diets receive the same volume (1.8% w/w) of neutral soybean oil than that required to provide the desired amount of Lipistase.\nAnimals are sacrificed by cervical dislocation; liver, muscles (gastrocnemius and soleus), heart are quickly dissected, weighed and frozen in liquid nitrogen, then stored at −80° C. The various deposits of fat tissues (subcutaneous, peri-renal, inguinal and mesenteric) are removed and weighed to calculate the adiposity index."}, "[4]": {"system": "C57B16J mice submitted to diet rich in cholesterol", "experiment": "Index of adiponectin secretion by adipose tissue", "type": "in vivo, C57bl6J male mice", "settings": "adiponectin concentration (μg/ml)/mass of adipose tissue (g)", "method": "as §1, §2\nas §3, with “Lipistase. […]” for “Lipistase.”"}, "[5]": {"system": "C57B16J mice submitted to diet rich in cholesterol", "experiment": "Non-fasting insulinemia after 12 weeks", "type": "in vivo, C57bl6J male mice", "settings": "after 12 weeks of treatment", "method": "as §1, §2\nas §3, with “Lipistase. […]” for “Lipistase.”"}, "[6]": {"experiment": "Body weight and weight gain of mice on cholesterol-enriched diet, 12 weeks of treatment", "type": "in vivo, C57bl6J male mice", "settings": "diet rich in cholesterol", "method": "as §1, §2, §3\nThe assessment of weight and food intake is carried out once a week. […]"}, "[7]": {"settings": "intestinal tract; cited from earlier work"}}}
{"smiles": "CC(C)c1c(C(=O)Nc2ccccc2)c(-c2ccccc2)c(-c2ccc(F)cc2)n1CC[C@@H](O)C[C@@H](O)CC(=O)O", "note": "[atorvastatin]", "values": [{"measurement": "Free cholesterol in VLDL, percentage change compared to controls HC (FIG. 11b)", "setting": "[1]", "result": "−35", "unit": "%"}, {"measurement": "Glycemia / blood sugar, effect in words", "setting": "[2]", "result": "at the same level than that of the control animals"}, {"measurement": "Adiposity index, effect in words (FIG. 5)", "setting": "[3]", "result": "reduction of this index"}, {"measurement": "Epididymal fat, percentage change compared to controls HC (FIG. 6)", "setting": "[3]", "result": "−46", "unit": "%"}, {"measurement": "Perirenal (deep) fat, percentage change compared to controls HC (FIG. 6)", "setting": "[3]", "result": "−48", "unit": "%"}, {"measurement": "Subcutaneous fat, percentage change compared to controls HC (FIG. 6)", "setting": "[3]", "result": "−57", "unit": "%"}, {"measurement": "Adiponectin secretion index, effect in words (FIG. 9)", "setting": "[4]", "result": "significantly elevated"}, {"measurement": "Insulin levels, percentage change compared to controls HC (FIG. 14)", "setting": "[5]", "result": "−50", "unit": "%"}, {"measurement": "Insulinemia, circulating rate (FIG. 14)", "setting": "[5]", "result": "2.79 ± 0.33", "unit": "ng/mL"}, {"measurement": "Body weight compared to control animals (FIG. 1)", "setting": "[6]", "result": "significantly lower"}, {"measurement": "Weight gain (FIG. 2)", "setting": "[6]", "result": "reduction of weight gain"}]}
{"smiles": "CC(C)CCC[C@@H](C)[C@H]1CC[C@H]2[C@@H]3CC=C4C[C@@H](O)CC[C@]4(C)[C@H]3CC[C@]12C", "note": "[cholesterol]", "values": [{"measurement": "Intestinal absorption", "setting": "[7]", "result": 50, "unit": "%"}]}
{"smiles": "CC[C@H](CC[C@@H](C)[C@H]1CC[C@H]2[C@@H]3CC[C@H]4C[C@@H](O)CC[C@]4(C)[C@H]3CC[C@]12C)C(C)C", "note": "[sitostanol]", "values": [{"measurement": "Intestinal absorption", "setting": "[7]", "result": 1, "unit": "%"}]}
{"smiles": "CC[C@H](CC[C@@H](C)[C@H]1CC[C@H]2[C@@H]3CC=C4C[C@@H](O)CC[C@]4(C)[C@H]3CC[C@]12C)C(C)C", "note": "[sitosterol]", "values": [{"measurement": "Intestinal absorption", "setting": "[7]", "result": "4-7%"}]}
